Assay results published in patent US20200181117A1, “SUBSTITUTED 3-HETEROARYLOXY-1H-PYRAZOLES AND SALTS THEREOF AND THEIR USE AS HERBICIDAL ACTIVE SUBSTANCES” (BAYER CROPSCIENCE AKTIENGESELLSCHAFT, priority 2017, published 2020).

Key:
Assay type in all cases: in vivo
[1] = system: Abutilon theophrasti; assay: Post-emergence herbicidal action; details: 1280 g/ha, rated visually after about 3 weeks vs untreated controls
Experimental: (§1) A. Post-Emergence Herbicidal Action and Crop Plant Compatibility Seeds of monocotyledonous and dicotyledonous weeds and crop plants were placed in sandy loam in plastic or wood-fiber pots, covered with soil and cultivated in a greenhouse under controlled growth conditions. 2 to 3 weeks after sowing, the test plants were treated at the one-leaf stage. The compounds of the invention, formulated in the form of wettable powders (WP) or as emulsion concentrates (EC), were then sprayed onto the green parts of the plants as aqueous suspension or emulsion with addition of 0.5% additive at a water application rate of 600 l/ha (converted). After the test plants had been kept in the greenhouse under optimum growth conditions for about 3 weeks, the activity of the preparations was rated visually in comparison to untreated controls. For example, 100% activity=the plants have died, 0% activity=like control plants. Tables B1 to B15 below show the effects of selected compounds of the general formula (I) according to Table I on various harmful plants and an application rate corresponding to 1280 g/ha, which were obtained by the experimental procedure mentioned above.

[2] = system: Amaranthus retroflexus; assay: Post-emergence herbicidal action; details: 1280 g/ha, rated visually after about 3 weeks vs untreated controls
Experimental: as §1

[3] = system: Pharbitis purpurea; assay: Post-emergence herbicidal action; details: 1280 g/ha, rated visually after about 3 weeks vs untreated controls
Experimental: as §1

[4] = system: Polygonum convolvulus; assay: Post-emergence herbicidal action; details: 1280 g/ha, rated visually after about 3 weeks vs untreated controls
Experimental: as §1

[5] = system: Setaria viridis; assay: Post-emergence herbicidal action; details: 1280 g/ha, rated visually after about 3 weeks vs untreated controls
Experimental: as §1

[6] = system: Stellaria media; assay: Post-emergence herbicidal action; details: 1280 g/ha, rated visually after about 3 weeks vs untreated controls
Experimental: as §1

[7] = system: Viola tricolor; assay: Post-emergence herbicidal action; details: 1280 g/ha, rated visually after about 3 weeks vs untreated controls
Experimental: as §1

[8] = system: Abutilon theophrasti; assay: Pre-emergence herbicidal action; details: 1280 g/ha, scored visually after about 3 weeks vs untreated controls
Text: (§2) Pre-Emergence Herbicidal Action and Crop Plant Compatibility Seeds of monocotyledonous and dicotyledonous weed plants and crop plants were placed in plastic or wood fiber pots and covered with soil. The compounds of the invention, formulated in the form of wettable powders (WP) or as emulsion concentrates (EC), were then applied onto the surface of the covering soil as aqueous suspension or emulsion with addition of 0.5% additive at a water application rate of 600 l/ha (converted). After the treatment, the pots were placed in a greenhouse and kept under good growth conditions for the test plants. After about 3 weeks, the effect of the preparations was scored visually in comparison with untreated controls as percentages. For example, 100% activity=the plants have died, 0% activity=like control plants. Tables C1 to C14 below show the effects of selected compounds of the general formula (I) according to Table I on various harmful plants and an application rate corresponding to 1280 g/ha, which were obtained by the experimental procedure mentioned above.

[9] = system: Alopecurus myosuroides; assay: Pre-emergence herbicidal action; details: 1280 g/ha, scored visually after about 3 weeks vs untreated controls
Text: as §2

[10] = system: Amaranthus retroflexus; assay: Pre-emergence herbicidal action; details: 1280 g/ha, scored visually after about 3 weeks vs untreated controls
Text: as §2

[11] = system: Echinochloa crus-galli; assay: Pre-emergence herbicidal action; details: 1280 g/ha, scored visually after about 3 weeks vs untreated controls
Text: as §2

[12] = system: Hordeum murinum; assay: Pre-emergence herbicidal action; details: 1280 g/ha, scored visually after about 3 weeks vs untreated controls
Text: as §2

[13] = system: Lolium rigidum; assay: Pre-emergence herbicidal action; details: 1280 g/ha, scored visually after about 3 weeks vs untreated controls
Text: as §2

[14] = system: Matricaria inodora; assay: Pre-emergence herbicidal action; details: 1280 g/ha, scored visually after about 3 weeks vs untreated controls
Text: as §2

[15] = system: Polygonum convolvulus; assay: Pre-emergence herbicidal action; details: 1280 g/ha, scored visually after about 3 weeks vs untreated controls
Text: as §2

[16] = system: Setaria viridis; assay: Pre-emergence herbicidal action; details: 1280 g/ha, scored visually after about 3 weeks vs untreated controls
Text: as §2

[17] = system: Stellaria media; assay: Pre-emergence herbicidal action; details: 1280 g/ha, scored visually after about 3 weeks vs untreated controls
Text: as §2

[18] = system: Veronica persica; assay: Pre-emergence herbicidal action; details: 1280 g/ha, scored visually after about 3 weeks vs untreated controls
Text: as §2

[19] = system: Viola tricolor; assay: Pre-emergence herbicidal action; details: 1280 g/ha, scored visually after about 3 weeks vs untreated controls
Text: as §2

[20] = system: Alopecurus myosuroides; assay: Post-emergence herbicidal action; details: 1280 g/ha, rated visually after about 3 weeks vs untreated controls
Experimental: as §1

[21] = system: Echinochloa crus-galli; assay: Post-emergence herbicidal action; details: 1280 g/ha, rated visually after about 3 weeks vs untreated controls
Experimental: as §1

[22] = system: Avena fatua; assay: Pre-emergence herbicidal action; details: 1280 g/ha, scored visually after about 3 weeks vs untreated controls
Text: as §2

[23] = system: Veronica persica; assay: Post-emergence herbicidal action; details: 1280 g/ha, rated visually after about 3 weeks vs untreated controls
Experimental: as §1

| Structure (SMILES) | herbicidal activity on Abutilon theophrasti [1] [%] | herbicidal activity on Amaranthus retroflexus [2] [%] | herbicidal activity on Pharbitis purpurea [3] [%] | herbicidal activity on Polygonum convolvulus [4] [%] | herbicidal activity on Setaria viridis [5] [%] | herbicidal activity on Viola tricolor [7] [%] | herbicidal activity on Abutilon theophrasti [8] [%] | herbicidal activity on Alopecurus myosuroides [9] [%] | herbicidal activity on Amaranthus retroflexus [10] [%] | herbicidal activity on Echinochloa crus-galli [11] [%] | herbicidal activity on Hordeum murinum [12] [%] | herbicidal activity on Lolium rigidum [13] [%] | herbicidal activity on Matricaria inodora [14] [%] | herbicidal activity on Polygonum convolvulus [15] [%] | herbicidal activity on Setaria viridis [16] [%] | herbicidal activity on Stellaria media [17] [%] | herbicidal activity on Veronica persica [18] [%] | herbicidal activity on Viola tricolor [19] [%] | herbicidal activity on Alopecurus myosuroides [20] [%] | herbicidal activity on Echinochloa crus-galli [21] [%] | other results |
| --- | --- | --- | --- | --- | --- | --- | --- | --- | --- | --- | --- | --- | --- | --- | --- | --- | --- | --- | --- | --- | --- |
| CCc1c(Sc2ccc(F)c(F)c2)c(Oc2ncc(F)cn2)nn1C [Example I-037] | 90 | 100 | 100 | 80 | 100 | 100 | 100 | 100 | 100 | 100 | 90 | 100 | 90 | 100 | 100 | 100 | 100 | 100 | – | – | herbicidal activity on Stellaria media [6]: 100% |
| Cc1c(Sc2ccc(F)cc2F)c(Oc2ncccn2)nn1C [Example I-044, 2-[4-(2,4-Difluorophenyl)sulfanyl-1,5-dimethylpyrazol-3-yl]oxypyrimidine] | 100 | 100 | 100 | 100 | 100 | 100 | 100 | 100 | 100 | 100 | 90 | 90 | 100 | 90 | 100 | 100 | 100 | 100 | 90 | 100 | herbicidal activity on Stellaria media [6]: 100%; herbicidal activity on Avena fatua [22]: 100% |
| Cc1c(Sc2ccc(F)cc2)c(Oc2ncc(F)cn2)nn1C [Example I-090] | 100 | 100 | – | 100 | 100 | 100 | 100 | 100 | 100 | 100 | 100 | 90 | 100 | 90 | 100 | 100 | 100 | 100 | 100 | 80 | herbicidal activity on Stellaria media [6]: 100%; herbicidal activity on Avena fatua [22]: 100% |
| Cc1c(Sc2cccc(Cl)c2)c(Oc2ncc(F)cn2)nn1C [Example I-091] | 80 | 80 | 80 | – | 100 | 100 | 100 | 100 | 100 | 100 | 100 | 90 | 100 | 100 | 100 | 100 | 100 | 100 | 80 | 80 | herbicidal activity on Avena fatua [22]: 90% |
| Cc1c(Sc2cccc(F)c2)c(Oc2ncccn2)nn1C [Example I-092] | 100 | 100 | 80 | 100 | 100 | 100 | 100 | 100 | 100 | 100 | 100 | 100 | 100 | 90 | 100 | 90 | 100 | 90 | 90 | 100 | herbicidal activity on Stellaria media [6]: 100%; herbicidal activity on Avena fatua [22]: 90% |
| COc1cnc(Oc2nn(C)c(C)c2Sc2cccc(Cl)c2)nc1 [Example I-134] | 90 | 100 | 80 | 80 | – | 100 | 100 | 100 | 100 | 90 | 90 | 100 | 100 | 100 | 100 | 100 | 100 | 100 | 90 | 80 | herbicidal activity on Avena fatua [22]: 80% |
| CC(C)n1cc(Sc2ccc(F)cc2)c(Oc2ncc(Cl)cn2)n1 [Example I-137] | – | 80 | – | – | – | 100 | – | – | 100 | – | – | – | – | 100 | 100 | 100 | – | 100 | – | – | herbicidal activity on Veronica persica [23]: 90% |
| Cn1cc(Sc2ccc(Cl)cc2)c(Oc2ncc(Cl)cn2)n1 [Example I-188] | – | 100 | – | – | – | – | – | – | 100 | 80 | – | – | – | – | 100 | 90 | – | 100 | – | – | herbicidal activity on Veronica persica [23]: 100% |
| Fc1cnc(Oc2nn3c(c2Sc2ccc(F)cc2F)CCOCC3)nc1 [Example I-192] | 80 | – | – | 100 | – | 80 | 100 | 100 | 80 | 100 | 90 | – | 100 | 100 | 100 | 90 | 100 | 100 | 80 | 80 | – |
